Where two headings read alike, the source gives them in different places.
Experiments:
[1] = tested on: threshold for electroconvulsions in mice; assay: Maximal electroshock seizure threshold (MEST) test; conditions: for TID20 (dose that increases threshold by 20 %): i.p., 30 min before test, from linear regression of dose vs threshold increase
[2] = tested on: motor coordination in mice; assay: Chimney test; format: in vivo, Swiss mice; conditions: n = 8 mice/group
From the text: The chimney test of Boissier et al. ([1960]) was used to quantify the adverse effect potential of classical AEDs administered in combination with modafinil, its metabolites, or GBR 12909. In this test, the animals had to climb backwards up a plastic tube (3-cm inner diameter, 30 cm long), and impairment of motor performance was indicated by the inability of the mice to climb backward up the transparent tube within 60 s.

[3] = tested on: passive avoidance performance in mice; assay: Step-through passive avoidance task; format: in vivo, Swiss mice; conditions: median (25th; 75th percentiles), observed up to 180 s
Procedure: The effects of combinations of modafinil (50 mg kg^−1), its metabolites (50 mg kg^−1), or GBR 12909 (25 mg kg^−1) with different classical AEDs were quantified by the step-through passive avoidance task of Venault et al. ([1986]). AEDs were administered at doses corresponding to their ED50 values from the MES test. Each animal received an AED either alone or in combination either with modafinil, sulfone, and acid metabolites or with GBR 12909 on the first day before training. The time before commencement of the training session (after drug administration) in the step-through passive avoidance task was identical to that for the MES test. Subsequently, the animals were placed in an illuminated box (10 × 13 × 15 cm) connected to a larger dark box (25 × 20 × 15 cm) equipped with an electric grid floor. Entrance of the animals to the dark box was punished by an adequate electric footshock (0.6 mA for 2 s). […] On the following day (24 h later), the pretrained animals were placed again into the illuminated box and observed for up to 180 s. Mice that avoided the dark compartment for 180 s were considered as having remembered the task. The time the mice took to enter the dark box was noted, and the median latencies (retention times) with 25th and 75th percentiles were calculated.

[4] = tested on: MES-induced seizures in mice; parameters: method as in Chatterjie et al. [2004]; conditions: 300 mg kg^−1 i.p., ref Chatterjie et al. [2004], cited from earlier work; for Protection against MES-induced seizures: administered alone
[5] = tested on: skeletal muscular strength in mice; assay: Grip strength test; format: in vivo, Swiss mice; conditions: mean ± S.E.M.
Procedure: The effects of combinations of modafinil (50 mg kg^−1), sulfone and acid metabolites (50 mg kg^−1), or GBR 12909 (25 mg kg^−1) with different classical AEDs at doses corresponding to their ED50 values from the MES test on skeletal muscular strength in mice were quantified by the grip strength test of Meyer et al. ([1979]). The grip strength apparatus (BioSeb, Chaville, France) comprised a wire grid (8 × 8 cm) connected to an isometric force transducer (dynamometer). The mice were lifted by the tails so that their forepaws could grasp the grid. The mice were then gently pulled backward by the tail until the grid was released. The maximal force exerted by the mouse before losing grip was recorded. The mean of three measurements for each animal was calculated, and subsequently, the mean maximal force of eight animals per group was determined. The muscular strength in mice is expressed in N (newtons) as the means ± S.E.M. of at least eight determinations.

[6] = Total brain antiepileptic drug concentrations (fluorescence polarization immunoassay); conditions: AED + vehicle, mean ± S.E.M., n = 8
Procedure: The whole brains of mice were removed from the skulls, weighed, harvested, and homogenized using Abbott buffer (1:2 weight/volume; Abbott Laboratories, North Chicago, IL, USA) in an Ultra-Turrax T8 homogenizer. The homogenates were then centrifuged at 10,000 g for 10 min, and the supernatant samples of 100 μl were collected and then analyzed for AED content. Total brain concentrations of CBZ, PB, PHT, and VPA were measured by a fluorescence polarization immunoassay using an analyzer (Abbott TDx) and manufacturer-supplied reagent kits (Abbott Laboratories, North Chicago, IL, USA). Total brain AED concentrations are expressed in μg g^−1 of wet brain tissue as means ± standard error of the mean (S.E.M.) of at least eight separate brain preparations.

[7] = tested on: MES-induced seizures in mice; assay: Maximal electroshock seizure (MES) test, AEDs alone and in combination; format: in vivo, Swiss mice; conditions: AED + vehicle (alone), i.p., 25 mA, ± S.E.M.
Procedure: The stimulus duration was 0.2 s.
These parameters of stimulation (maximal electroshock) typically result in all mice responding with tonic hind limb extension immediately after stimulation. The AEDs administered alone and their combination with modafinil, its metabolites, or GBR 12909 were tested for their ability to increase the number of animals not responding with tonus (i.e., protected from tonic hind limb extension) after stimulation. […] After constructing a dose-effect curve (i.e., dose in mg kg^−1 vs percentage of mice protected), the protective median effective dose (ED50) value of the AED tested was calculated according to a log-probit method by Litchfield and Wilcoxon ([1949]). […] Modafinil, its two metabolites, and GBR 12909 were tested for their ability to affect the anticonvulsive potency of AEDs.

[8] = tested on: locomotor activation in mice; parameters: method as in Paterson et al. [2010]; conditions: ref Paterson et al. [2010]; cited from earlier work
[9] = tested on: electroconvulsions in mice; parameters: method as in Chen et al. [2007]; conditions: ref Chen et al. [2007], cited from earlier work
CYP3A4/5 = conditions: human liver microsomes; ref Robertson and Hellriegel [2003]; cited from earlier work
CYP2C9 = conditions: human hepatocytes; ref Robertson and Hellriegel [2003]; cited from earlier work
[10] = compound alone 50 mg kg^−1 i.p. + vehicle
[11] = i.p.: CBZ 4.3, PB 13.0, PHT 5.4, VPA 245.3 mg kg^−1 (control of MOD)
[12] = i.p.: CBZ 5.7, PB 14.0, PHT 6.0, VPA 226.4 mg kg^−1 (control of SULF)
[13] = i.p.: CBZ 6.4, PB 14.4, PHT 6.3, VPA 241.6 mg kg^−1 (control of ACID)
[14] = i.p.: CBZ 11.2, PB 15.4, PHT 7.0, VPA 211.4 mg kg^−1 (control of GBR)
[15] = control of GBR series (Table 5)
[16] = control of MOD, SULF and ACID series (Tables 2-4)
[17] = GBR alone 25 mg kg^−1 i.p. + vehicle

In the case of `O=C(O)CSC(c1ccccc1)c1ccccc1` [ACID, diphenylmethylthioacetic acid], the “TI (percentage of threshold increase over vehicle control)” value ([1]; 12.5 mg kg^−1 i.p.) is reported as 12.83%, the “TI (percentage of threshold increase over vehicle control)” value ([1]; 25 mg kg^−1 i.p.) is reported as 22.32% and the “TI (percentage of threshold increase over vehicle control)” value ([1]; 50 mg kg^−1 i.p.) is reported as 34.80%. For the same compound, the “TI (percentage of threshold increase over vehicle control)” value ([1]; 75 mg kg^−1 i.p.) was 57.82%, the “TID20 (dose that increases threshold by 20 %)” value [1] was 23.47 mg/kg and the “Motor coordination impairment (number of animals showing impairment in the chimney test)” value (“Motor coordination impairment” for short) [2, 10] was 0/8. The Retention time [3, 10] was 180 (133.5; 180) s, the “Toxicity at the dose tested in the MES test” value [4] was “toxic” and the Grip strength [5, 10] was 0.961 ± 0.050 N.
In the case of `NC(=O)N1c2ccccc2C=Cc2ccccc21` [CBZ, carbamazepine], the “Brain concentration of the AED” value [6, 11] is reported as 2.41 ± 0.48 μg g^−1 of wet brain tissue, the “Brain concentration of the AED” value [6, 12] is reported as 3.76 ± 0.35 μg g^−1 of wet brain tissue and the “Brain concentration of the AED” value [6, 13] is reported as 4.46 ± 0.31 μg g^−1 of wet brain tissue. For the same compound, the “Brain concentration of the AED” value [6, 14] was 6.66 ± 0.42 μg g^−1 of wet brain tissue, the “ED50 of the AED (protecting 50 % of animals against MES-induced hind limb extension)” value [7, 15] was 15.53 ± 1.04 mg/kg and the “ED50 of the AED (protecting 50 % of animals against MES-induced hind limb extension)” value [7, 16] was 11.23 ± 1.20 mg/kg.
For `Fc1ccc(C(OCCN2CCN(CCCc3ccccc3)CC2)c2ccc(F)cc2)cc1` [GBR], the “TI (percentage of threshold increase over vehicle control)” value ([1]; 6.25 mg kg^−1 i.p.) was 11.25%, the “TI (percentage of threshold increase over vehicle control)” value ([1]; 12.5 mg kg^−1 i.p.) was 19.18% and the “TI (percentage of threshold increase over vehicle control)” value ([1]; 25 mg kg^−1 i.p.) was 25.67%. The “TI (percentage of threshold increase over vehicle control)” value ([1]; 50 mg kg^−1 i.p.) was 44.53%, the “TID20 (dose that increases threshold by 20 %)” value [1] was 16.37 mg/kg and the “Motor coordination impairment” value [2, 17] was 1/8. For the same compound, the Retention time [3, 17] was 180 (133.5; 180) s, the “Dose eliciting equivalent locomotor activation” value [8] was 15 mg/kg and the Grip strength [5, 17] was 0.937 ± 0.042 N.
For `NC(=O)C[S+]([O-])C(c1ccccc1)c1ccccc1` (stereo not shown) [MOD, diphenylmethylsulfinylacetamide], the “TI (percentage of threshold increase over vehicle control)” value ([1]; 12.5 mg kg^−1 i.p.) was −2.78%, the “TI (percentage of threshold increase over vehicle control)” value ([1]; 25 mg kg^−1 i.p.) was 2.78% and the “TI (percentage of threshold increase over vehicle control)” value ([1]; 50 mg kg^−1 i.p.) was 22.88%. For the same compound, the “TI (percentage of threshold increase over vehicle control)” value ([1]; 75 mg kg^−1 i.p.) was 35.46%, the “TID20 (dose that increases threshold by 20 %)” value [1] was 49.12 mg/kg and the “Motor coordination impairment” value [2, 10] was 0/8. For the same compound, the Retention time [3, 10] was 180 (123.5; 180) s, the “Dose eliciting equivalent locomotor activation” value [8] was 150 mg/kg and the “Mice protected against electroconvulsions” value (“Mice protected” below) ([9]; 22.5 mg kg^−1 i.p.) was 50%. For the same compound, the “Mice protected” value ([9]; 45 mg kg^−1 i.p.) was 70%, the “Mice protected” value ([9]; 90 mg kg^−1 i.p.) was 90% and the “Mice protected” value ([9]; 180 mg kg^−1 i.p.) was 70%. For the same compound, the “Protection against MES-induced seizures” value [4] was 100%, the Grip strength [5, 10] was 0.908 ± 0.053 N and the “Inhibition of CYP3A4/5” value (CYP3A4/5) was “weak inhibition”. For the same compound, the “Inhibition of CYP2C9” value (CYP2C9) was “inhibit”.
In the case of `CCC1(c2ccccc2)C(=O)NC(=O)NC1=O` [PB, phenobarbital], the “Brain concentration of the AED” value [6, 11] is reported as 23.56 ± 1.10 μg g^−1 of wet brain tissue, the “Brain concentration of the AED” value [6, 12] is reported as 23.71 ± 0.86 μg g^−1 of wet brain tissue and the “Brain concentration of the AED” value [6, 13] is reported as 25.46 ± 0.84 μg g^−1 of wet brain tissue. For the same compound, the “Brain concentration of the AED” value [6, 14] was 24.18 ± 0.70 μg g^−1 of wet brain tissue, the “ED50 of the AED (protecting 50 % of animals against MES-induced hind limb extension)” value [7, 15] was 26.90 ± 2.15 mg/kg and the “ED50 of the AED (protecting 50 % of animals against MES-induced hind limb extension)” value [7, 16] was 20.80 ± 3.12 mg/kg.
With `O=C1NC(=O)C(c2ccccc2)(c2ccccc2)N1` [PHT, phenytoin] the “Brain concentration of the AED” value [6, 11] was 1.39 ± 0.20 μg g^−1 of wet brain tissue, the “Brain concentration of the AED” value [6, 12] was 1.65 ± 0.19 μg g^−1 of wet brain tissue and the “Brain concentration of the AED” value [6, 13] was 1.70 ± 0.15 μg g^−1 of wet brain tissue. For the same compound, the “Brain concentration of the AED” value [6, 14] was 3.22 ± 0.30 μg g^−1 of wet brain tissue, the “ED50 of the AED (protecting 50 % of animals against MES-induced hind limb extension)” value [7, 15] was 12.10 ± 1.20 mg/kg and the “ED50 of the AED (protecting 50 % of animals against MES-induced hind limb extension)” value [7, 16] was 11.00 ± 0.93 mg/kg.
With `NC(=O)CS(=O)(=O)C(c1ccccc1)c1ccccc1` [SULF, diphenylmethylsufonylacetamide] the “TI (percentage of threshold increase over vehicle control)” value ([1]; 12.5 mg kg^−1 i.p.) was 14.24%, the “TI (percentage of threshold increase over vehicle control)” value ([1]; 25 mg kg^−1 i.p.) was 21.62% and the “TI (percentage of threshold increase over vehicle control)” value ([1]; 50 mg kg^−1 i.p.) was 32.34%. The “TI (percentage of threshold increase over vehicle control)” value ([1]; 75 mg kg^−1 i.p.) was 58.88%, the “TID20 (dose that increases threshold by 20 %)” value [1] was 23.57 mg/kg and the “Motor coordination impairment” value [2, 10] was 0/8. For the same compound, the Retention time [3, 10] was 180 (180; 180) s, the “Protection against MES-induced seizures” value [4] was 50% and the Grip strength [5, 10] was 0.957 ± 0.058 N.
For `CCCC(CCC)C(=O)O` [VPA, valproate], the “Brain concentration of the AED” value [6, 11] was 299.73 ± 15.09 μg g^−1 of wet brain tissue, the “Brain concentration of the AED” value [6, 12] was 276.30 ± 11.55 μg g^−1 of wet brain tissue and the “Brain concentration of the AED” value [6, 13] was 346.98 ± 16.10 μg g^−1 of wet brain tissue. For the same compound, the “Brain concentration of the AED” value [6, 14] was 173.66 ± 10.36 μg g^−1 of wet brain tissue, the “ED50 of the AED (protecting 50 % of animals against MES-induced hind limb extension)” value [7, 15] was 286.7 ± 20.11 mg/kg and the “ED50 of the AED (protecting 50 % of animals against MES-induced hind limb extension)” value [7, 16] was 328.6 ± 13.17 mg/kg.
